Target: T1, human SARM1(50-724) (Homo sapiens, UniProt Q6SZW1)
T1 construct: 40 nM human SARM1(50-724)
T1 sequence (Q6SZW1 50-724): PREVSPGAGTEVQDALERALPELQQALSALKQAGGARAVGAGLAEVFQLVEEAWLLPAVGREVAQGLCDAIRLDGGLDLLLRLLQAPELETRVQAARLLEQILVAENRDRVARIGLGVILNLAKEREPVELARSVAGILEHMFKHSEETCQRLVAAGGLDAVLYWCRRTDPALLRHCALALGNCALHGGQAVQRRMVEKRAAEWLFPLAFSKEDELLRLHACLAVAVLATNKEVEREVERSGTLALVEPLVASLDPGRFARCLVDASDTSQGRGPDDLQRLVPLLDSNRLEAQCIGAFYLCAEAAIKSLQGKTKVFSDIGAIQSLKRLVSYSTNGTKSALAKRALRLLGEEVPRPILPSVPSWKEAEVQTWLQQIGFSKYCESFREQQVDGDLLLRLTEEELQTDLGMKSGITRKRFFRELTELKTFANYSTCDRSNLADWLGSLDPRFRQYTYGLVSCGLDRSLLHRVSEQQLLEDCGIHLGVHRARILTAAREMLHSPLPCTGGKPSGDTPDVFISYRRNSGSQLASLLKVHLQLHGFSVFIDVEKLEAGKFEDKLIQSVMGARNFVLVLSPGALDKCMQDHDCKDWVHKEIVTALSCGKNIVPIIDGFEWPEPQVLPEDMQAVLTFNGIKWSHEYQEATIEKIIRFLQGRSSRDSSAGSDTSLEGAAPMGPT
Assay: SARM1 NADase biochemical assay (HPLC of NAD and NAM)
Settings: 40 nM human SARM1(50-724), 0.3 mM NMN, 20 μM NAD, 60 minutes room temperature; dose-response from 100 μM, 1:3 dilution
Description: Each reaction was run at a volume of 20 μL containing 50 μM compound (dissolved in DMSO; final concentration of DMSO is 1% v/v), 40 nM human SARM1(50-724), 0.3 mM NMN, 20 μM NAD, 1 mM TCEP, 25 mM HEPES pH 7.4, 10 mM KCl and 10 mM MgCl2. The reaction was incubated at room temperature for 60 minutes and quenched with 20 μL of 0.4% formic acid. The samples were run on Agilent HPLC 1260 Infinity II with Synergi 2.5 μM Fusion-RP 100 Å (100×3.0 mm) LC column from Phenomenex. Total run time for each sample was 4 minutes. The run was isocratic with 1.5% methanol in 40 mM ammonium acetate pH 6.0. Samples were run at a flow rate of 0.8 mL/min at 55° C. Peak areas of NAD and NAM were determined using OpenLAB CDS (Chem Station edition) software. For dose-response, the compound was diluted serially 1:3 in DMSO and added to the reaction starting at a final compound concentration of 100 μM in 1% DMSO.

Compound | IC50
Cc1c(-c2ccncc2)n[nH]c1NC(=O)CCc1cc(Cl)no1 [Example 78, 3-(3-Chloroisoxazol-5-yl)-N-(4-methyl-3-(pyridin-4-yl)-1H-pyrazol-5-yl)propanamide] | < 1000 nM
O=C(CCc1ccc(Cl)cc1)Nc1cc(-c2ccncc2F)n[nH]1 [Example 170, 3-(4-Chlorophenyl)-N-(3-(3-fluoropyridin-4-yl)-1H-pyrazol-5-yl)propanamide] | < 1000 nM
O=C(CCc1ccc(Cl)cc1)Nc1cc(-c2ccncc2)n[nH]1 [Example 98, 3-(4-Chlorophenyl)-N-(3-(pyridin-4-yl)-1H-pyrazol-5-yl)propanamide] | < 1000 nM
Cc1c(-c2ccncc2)n[nH]c1NC(=O)CC1CCCc2ccccc21 (centres unmarked) [Example 66, N-[4-Methyl-3-(pyridin-4-yl)-1H-pyrazol-5-yl]-2-(1,2,3,4-tetrahydronaphthalen-1-yl)acetamide] | 1000 to 10000 nM
O=C(NCc1ccc(Cl)cc1)Nc1[nH]nc(-c2ccncc2)c1Cl [Example 168, 1-(4-Chloro-3-(pyridin-4-yl)-1H-pyrazol-5-yl)-3-(4-chlorobenzyl)urea] | < 1000 nM
Cc1c(-c2ccncc2)n[nH]c1NC(=O)CCn1cc(Cl)cn1 [Example 77, 3-(4-Chloro-1H-pyrazol-1-yl)-N-(4-methyl-3-(pyridin-4-yl)-1H-pyrazol-5-yl)propenamide] | 1000 to 10000 nM
Cc1c(-c2ccncc2)n[nH]c1N1C(=O)CC(Cc2ccc(Cl)cc2)C1=O (racemic) [Example 154, (rac)-3-(4-Chlorobenzyl)-1-(4-methyl-3-(pyridin-4-yl)-1H-pyrazol-5-yl)pyrrolidine-2,5-dione] | 1000 to 10000 nM
N#Cc1ccc(CCC(=O)Nc2cnn(-c3ccncc3)c2Cl)cc1F [Example 94, N-(5-Chloro-1-(pyridin-4-yl)-1H-pyrazol-4-yl)-3-(4-cyano-3-fluorophenyl)propanamide] | < 1000 nM
Cc1c(NC(=O)OCc2ccc(Cl)cc2)cnn1-c1ccncc1 [Example 136, 4-Chlorobenzyl (5-methyl-1-(pyridin-4-yl)-1H-pyrazol-4-yl)carbamate] | < 1000 nM
Cc1c(-c2ccncc2)n[nH]c1N(C(=O)CCc1cc(F)c(F)c(F)c1)C(=O)CCc1cc(F)c(F)c(F)c1 [Example 10, N-(4-Methyl-3-(pyridin-4-yl)-1H-pyrazol-5-yl)-3-(3,4,5-trifluorophenyl)-N-(3-(3,4,5-trifluorophenyl)propanoyl)propanamide] | < 1000 nM
O=C(CCc1cc(F)c(F)c(F)c1)Nc1cc(-c2ccncc2)n[nH]1 [Example 102, N-(3-(Pyridin-4-yl)-1H-pyrazol-5-yl)-3-(3,4,5-trifluorophenyl)propanamide] | < 1000 nM
Cc1c(-c2ccncc2)n[nH]c1N(C)C(=O)CCc1ccc(Cl)cc1 [Example 139] | < 1000 nM
O=C(CCc1ccc(Cl)cc1)Nc1[nH]nc(-c2ccncc2)c1Cl [Example 96, N-(4-Chloro-3-(pyridin-4-yl)-1H-pyrazol-5-yl)-3-(4-chlorophenyl)propanamide] | < 1000 nM
N[C@H](Cc1ccc(Cl)cc1)C(=O)Nc1cc(-c2ccncc2)n[nH]1 [Example 151, (R)-2-Amino-3-(4-chlorophenyl)-N-(3-(pyridin-4-yl)-1H-pyrazol-5-yl)propanamide] | < 1000 nM
Cc1c(-c2ccncc2)n[nH]c1N(C(=O)CCc1ccc(Cl)cc1)C(=O)CCC(C)C [Example 7, N-(3-(4-Chlorophenyl)propanoyl)-4-methyl-N-(4-methyl-3-(pyridin-4-yl)-1H-pyrazol-5-yl)pentanamide] | 1000 to 10000 nM

Continued, values first:

IC50 | Compound
< 1000 nM | Cc1cc(Cl)ccc1CCC(=O)Nc1[nH]nc(-c2ccncc2)c1C [Example 42, 3-(4-Chloro-2-methylphenyl)-N-(4-methyl-3-(pyridin-4-yl)-1H-pyrazol-5-yl)propanamide]
< 1000 nM | Cc1c(-c2ccncc2)n[nH]c1NC(=O)CCc1ccc(C(F)(F)F)cc1 [Example 32, N-(4-Methyl-3-(pyridin-4-yl)-1H-pyrazol-5-yl)-3-(4-(trifluoromethyl)phenyl)propanamide]
< 1000 nM | Cc1c(-c2ccncc2)n[nH]c1NC(=O)C(F)Cc1cc(F)c(Cl)c(F)c1 (racemic) [Example 71, (rac)-3-(4-Chloro-3,5-difluorophenyl)-2-fluoro-N-(4-methyl-3-(pyridin-4-yl)-1H-pyrazol-5-yl)propanamide]
1000 to 10000 nM | Cc1c(-c2ccncc2)n[nH]c1NC(=O)CCc1ccc(Cl)cn1 [Example 39, 3-(5-Chloropyridin-2-yl)-N-(4-methyl-3-(pyridin-4-yl)-1H-pyrazol-5-yl)propanamide]
< 1000 nM | Cc1c(-c2ccncc2)n[nH]c1NC(=O)NCc1ccc(Cl)cc1 [Example 161, 1-(4-Chlorobenzyl)-3-(4-methyl-3-(pyridin-4-yl)-1H-pyrazol-5-yl)urea]
1000 to 10000 nM | Cc1c(-c2ccncc2)n[nH]c1NC(=O)N(C)Cc1ccc(Cl)cc1 [Example 131, 1-(4-Chlorobenzyl)-1-methyl-3-(4-methyl-3-(pyridin-4-yl)-1H-pyrazol-5-yl)urea]
< 1000 nM | Cc1c(-c2ccncc2)n[nH]c1NC(=O)CCc1cc(Cl)c(Cl)c(Cl)c1 [Example 47, N-(4-Methyl-3-(pyridin-4-yl)-1H-pyrazol-5-yl)-3-(3,4,5-trichlorophenyl)propanamide]
1000 to 10000 nM | Cc1c(-c2ccncc2)n[nH]c1NC(=O)C(F)(F)Cc1ccc(Cl)cc1 [Example 80, 3-(4-Chlorophenyl)-2,2-difluoro-N-(4-methyl-3-(pyridin-4-yl)-1H-pyrazol-5-yl)propanamide]
< 1000 nM | Cc1c(-c2ccncc2)n[nH]c1NC(=O)CCc1cc(F)c(C#N)c(F)c1 [Example 65, 3-(4-Cyano-3,5-difluorophenyl)-N-(4-methyl-3-(pyridin-4-yl)-1H-pyrazol-5-yl)propanamide]
1000 to 10000 nM | Cc1c(-c2ccncc2)n[nH]c1NC(=O)CCc1ccccc1Cl [Example 23, 3-(2-Chlorophenyl)-N-(4-methyl-3-(pyridin-4-yl)-1H-pyrazol-5-yl)propanamide]
1000 to 10000 nM | Cc1cnccc1-c1n[nH]c(NC(=O)CCc2ccc(C#N)c(F)c2)c1C [Example 112, 3-(4-Cyano-3-fluorophenyl)-N-(4-methyl-3-(3-methylpyridin-4-yl)-1H-pyrazol-5-yl)propanamide]
< 1000 nM | Cc1c(-c2ccncc2)n[nH]c1NC(=O)CNc1ccc(Cl)cc1 [Example 79, 2-((4-Chlorophenyl)amino)-N-(4-methyl-3-(pyridin-4-yl)-1H-pyrazol-5-yl)acetamide]
< 1000 nM | Cc1c(-c2ccncc2)n[nH]c1NC(=O)CCc1ccc([N+](=O)[O-])cc1 [Example 37, N-(4-Methyl-3-(pyridin-4-yl)-1H-pyrazol-5-yl)-3-(4-nitrophenyl)propanamide]
< 1000 nM | N#Cc1c(F)cc(CCC(=O)Nc2cc(-c3ccncc3)n[nH]2)cc1F [Example 104, 3-(4-Cyano-3,5-difluorophenyl)-N-(3-(pyridin-4-yl)-1H-pyrazol-5-yl)propanamide]
< 1000 nM | Cc1c(-c2ccncc2)n[nH]c1NC(=O)C(F)Cc1ccc(Cl)cc1 (racemic) [Example 18, (rac)-3-(4-chlorophenyl)-2-fluoro-N-(4-methyl-3-(pyridin-4-yl)-1H-pyrazol-5-yl)propanamide]
< 1000 nM | Cc1c(-c2ccncc2)n[nH]c1NC(=O)CCc1ccc(F)cc1F [Example 45, 3-(2,4-Difluorophenyl)-N-(4-methyl-3-(pyridin-4-yl)-1H-pyrazol-5-yl)propanamide]
< 1000 nM | Cc1c(-c2ccncc2)n[nH]c1NC(=O)CCc1cc(F)c(Cl)c(F)c1 [Example 48, 3-(4-Chloro-3,5-difluorophenyl)-N-(4-methyl-3-(pyridin-4-yl)-1H-pyrazol-5-yl)propanamide]
1000 to 10000 nM | Cc1ccccc1CCC(=O)Nc1[nH]nc(-c2ccncc2)c1C [Example 26, N-(4-Methyl-3-(pyridin-4-yl)-1H-pyrazol-5-yl)-3-(o-tolyl)propanamide]
1000 to 10000 nM | Cc1c(-c2ccncc2)n[nH]c1NC(=O)C(F)Cc1ccc(C#N)c(F)c1 (racemic) [Example 70, (rac)-3-(4-Cyano-3-fluorophenyl)-2-fluoro-N-(4-methyl-3-(pyridin-4-yl)-1H-pyrazol-5-yl)propanamide]
< 1000 nM | Cc1c(-c2ccncc2)n[nH]c1NC(=O)CCc1cc(F)c(F)c(F)c1 [Example 50, N-(4-Methyl-3-(pyridin-4-yl)-1H-pyrazol-5-yl)-3-(3,4,5-trifluorophenyl)propanamide]
